Among the data in patent US8394774B2, “Pesticidal compositions” (Dow AgroSciences, LLC., priority 2009, dated 2013) are pest or weed control values, retold here.

In assay [1] the test system is beet armyworm (BAW; Spodoptera exigua: Lepidoptera). Nature of the assay: 128-well diet tray assay on beet armyworm (BAW 50). It is filed as in vivo. Particulars: 144 h, read-out: BAW 50. The procedure:
(§1) Bioassays on beet armyworm (BAW; Spodoptera exigua: Lepidoptera) were conducted using either a 96-well microtiter plate-based high throughput (HTS) bioassay or a 128-well diet tray assay. The HTS assay is based on a modification of Lewer et al. J. Nat. Prod. 2006, 69, 1506. BAW eggs were placed on top of artificial diet (100 μL) in each well of a 96-well microtiter plate. The diet was pretreated with test compounds (12 μg dissolved in 30 μL of DMSO-acetone-H2O mixture) layered on top of the diet using a liquid handling system and then allowed to dry for several hours. Infested plates were then covered with a layer of sterile cotton batting and the plate lid, and then held in the dark at 29° C. Mortality was recorded at 6 days post-treatment. Each plate had six replicates. The percent mortality was calculated from the average of the six replicates. In the case of the 128-well diet assay, three to five second instar BAW larvae were placed in each well (3 mL) of the diet tray that had been previously filled with 1 mL of artificial diet to which 50 ug/cm^2 of the test compound (dissolved in 50 μL of 90:10 acetone-water mixture) had been applied (to each of eight wells) and then allowed to dry. Trays were covered with a clear self-adhesive cover, and held at 25° C., 14:10 light-dark for six days. Percent mortality was recorded for the larvae in each well; activity in the eight wells was then averaged. In Table 4, under both the BAW HTS and BAW 50 headings, an “A” means that the compound was tested and at least 50 percent mortality was observed whereas, “B” means that either (1) the compound was tested and less than 50 percent mortality was observed or (2) the compound was not tested.

Assay [2] shares this test system. Nature of the assay: 96-well microtiter plate-based high throughput (HTS) bioassay on beet armyworm (BAW HTS). Particulars: 144 h, read-out: BAW HTS. Type of assay: in vivo. The procedure: as §1

Take `CCO[C@@H]1[C@@H](OC)[C@H](C)O[C@@H](OC(=O)Nc2ccc(/N=N/c3ccc(OC(F)(F)F)cc3)cc2)[C@@H]1OC` [Compound 20, [4-(4-Trifluoromethoxy-phenylazo)-phenyl]-carbamic acid (2S,3R,4R,5S,6S)-4-ethoxy-3,5-dimethoxy-6-methyl-tetrahydropyran-2-yl ester]: the pest or weed control at 50 µg/cm2, 50 µg/cm2 in assay [1] was > 50%. For the same compound, the pest or weed control at 12 µg/well, 12 µg/well in assay [2] is > 50%.

Regarding `CCO[C@@H]1[C@@H](OC)[C@H](C)O[C@@H](OC(=O)Nc2ccc(/N=N/c3ccc(C(F)(F)F)cc3)cc2)[C@@H]1OC` [Compound 21, [4-(4-Trifluoromethylphenylazo)-phenyl]-carbamic acid (2S,3R,4R,5S,6S)-4-ethoxy-3,5-dimethoxy-6-methyl-tetrahydropyran-2-yl ester], the pest or weed control at 50 µg/cm2, 50 µg/cm2 in assay [1] was < 50%. Further, the pest or weed control at 12 µg/well, 12 µg/well in assay [2] was > 50%.

Consider `CCO[C@@H]1[C@@H](OC)[C@H](C)O[C@@H](OC(=O)Nc2ccc(/N=N/c3ccc(OC(F)(F)C(F)(F)F)cc3)cc2)[C@@H]1OC` [Compound 22, [4-(4-Pentafluoroethyloxyphenylazo)-phenyl]-carbamic acid (2S,3R,4R,5S,6S)-4-ethoxy-3,5-dimethoxy-6-methyl-tetrahydropyran-2-yl ester], for which the pest or weed control at 50 µg/cm2, 50 µg/cm2 in assay [1] is > 50%. Further, the pest or weed control at 12 µg/well, 12 µg/well in assay [2] was > 50%.
